For nine compounds, TGI and GI50 results are on record in PubChem BioAssay (NCI).

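Five concentrations, 48 hours, 96-well plates. The concentration for 50% growth inhibition is given as GI50. TGI denotes the concentration required for complete inhibition of growth.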

Test systems include HCT-15 colon; T-47D breast; SW-620 colon; OVCAR-8 ovarian; NCI-H460 lung; SR leukemia; NCI-H23 lung; OVCAR-4 ovarian; U251 CNS; MCF7 breast; HCT-116 colon; NCI/ADR-RES ovarian; CAKI-1 renal.
What all share (assay): inhibition of tumour cell growth, NCI panel, 48 h

With `CCOc1ncn(-c2ccc(NC(=S)Nc3cccc(O)c3)cc2)n1`, the TGI in the experiment with HCT-15 colon, in the experiment on T-47D breast, in the experiment on SW-620 colon, in the experiment with OVCAR-8 ovarian, with NCI-H460 lung and in the experiment with SR leukemia was more than 100 µM throughout. The TGI with NCI-H23 lung, in the experiment on OVCAR-4 ovarian, with U251 CNS, in the experiment on MCF7 breast and with HCT-116 colon was more than 100 µM in each case.
As for `COC[C@H]1C(=O)NCC(=O)N2NCCC[C@H]2C(=O)N(O)[C@H](C)C(=O)O[C@@H](C(C)C)[C@H](NC(=O)[C@](C)(O)[C@]2(O)CC[C@@H](CC(C)C)[C@H](C)O2)C(=O)N2NCCC[C@@H]2C(=O)N1O`, the GI50 in the experiment with HCT-15 colon was 0.0176 µM; with T-47D breast it was 0.0149 µM; in the experiment with OVCAR-8 ovarian, less than 0.01 µM; in the experiment on NCI-H460 lung it was less than 0.01 µM; in the experiment on SR leukemia, 0.0118 µM; with NCI-H23 lung, less than 0.01 µM. Also, the GI50 in the experiment on U251 CNS is less than 0.01 µM. Further, the TGI came out at 0.0433 µM in the experiment on HCT-15 colon; 0.0332 µM in the experiment on T-47D breast; 0.0306 µM in the experiment with OVCAR-8 ovarian; 0.0125 µM with NCI-H460 lung; 0.0555 µM in the experiment on SR leukemia; 0.0364 µM with NCI-H23 lung. In the experiment on U251 CNS, this compound registered a TGI of 0.0216 µM.
Consider `CC1(C)CCc2c(cc3c(c2O)CCC(C)(C)O3)O1`, for which the TGI with NCI/ADR-RES ovarian, in the experiment on HCT-15 colon, in the experiment with T-47D breast, in the experiment on SW-620 colon, in the experiment with OVCAR-8 ovarian and in the experiment on NCI-H460 lung was more than 100 µM each time. The TGI in the experiment with SR leukemia, with CAKI-1 renal, with NCI-H23 lung, with OVCAR-4 ovarian, in the experiment on U251 CNS and with MCF7 breast was more than 100 µM in each case. Besides, the TGI in the experiment on HCT-116 colon is more than 100 µM.
Consider `Cc1ccc(OP2(=O)Oc3ccc4ccccc4c3CN2c2ccc(Cl)cc2)cc1C` (stereo not drawn), for which the TGI in the experiment with NCI/ADR-RES ovarian, with HCT-15 colon, in the experiment with SW-620 colon, in the experiment with OVCAR-8 ovarian, in the experiment with NCI-H460 lung and in the experiment with CAKI-1 renal was more than 100 µM throughout. Moreover, the TGI with NCI-H23 lung, in the experiment on OVCAR-4 ovarian, in the experiment with U251 CNS, in the experiment on MCF7 breast and in the experiment with HCT-116 colon was more than 100 µM in each case.
Turning to `C=C/C(C)=C/[C@H](C)C(=O)C[C@H](O)CC1CC(=O)NC(=O)C1`, the TGI with NCI/ADR-RES ovarian, in the experiment with HCT-15 colon, in the experiment on SW-620 colon, with OVCAR-8 ovarian, with NCI-H460 lung and in the experiment on CAKI-1 renal was more than 100 µM throughout. Further, the TGI with NCI-H23 lung, with OVCAR-4 ovarian, in the experiment with U251 CNS, in the experiment with MCF7 breast and in the experiment with HCT-116 colon was more than 100 µM throughout.
Consider `COc1ccc2c(O)c3[n+](cc2c1OC)CCc1cc2c(cc1-3)OCO2`, for which the TGI in the experiment on NCI/ADR-RES ovarian, with HCT-15 colon, in the experiment with T-47D breast, with SW-620 colon, in the experiment with OVCAR-8 ovarian and in the experiment with NCI-H460 lung was more than 100 µM in each case. In addition, the TGI in the experiment with SR leukemia, in the experiment on CAKI-1 renal, with NCI-H23 lung, in the experiment on OVCAR-4 ovarian, with U251 CNS and with MCF7 breast was more than 100 µM in each case. Further, in the experiment with HCT-116 colon, the TGI was more than 100 µM.
For the compound `Nc1cc2c(cc1[N+](=O)[O-])[nH]c1c(-c3ccccc3)nccc12`, the TGI in the experiment with NCI/ADR-RES ovarian is 41.4 µM; with HCT-15 colon it was more than 57.3 µM; in the experiment with SW-620 colon it was more than 81.5 µM; in the experiment with OVCAR-8 ovarian it was more than 100 µM; in the experiment on NCI-H460 lung, 39.2 µM; in the experiment with NCI-H23 lung it was 39.5 µM. The TGI in the experiment on OVCAR-4 ovarian is 50.6 µM; in the experiment with U251 CNS, 55.4 µM; in the experiment on MCF7 breast, more than 64.1 µM; in the experiment on HCT-116 colon, 36 µM.
As for `COc1ccc(C(=O)C2CC3(CCC2(O)c2ccc(OC)cc2)CC(=O)Nc2ccccc2C3=O)cc1` (stereo not drawn), the TGI in the experiment with NCI/ADR-RES ovarian, in the experiment on HCT-15 colon, in the experiment with T-47D breast, in the experiment with SW-620 colon, in the experiment with OVCAR-8 ovarian and in the experiment on NCI-H460 lung was more than 100 µM in each case. Further, the TGI in the experiment on SR leukemia was more than 100 µM; in the experiment on CAKI-1 renal it was more than 100 µM; with NCI-H23 lung it was more than 100 µM; with OVCAR-4 ovarian it was 39.9 µM; with U251 CNS, more than 100 µM; in the experiment with MCF7 breast, more than 100 µM. This compound had a TGI in the experiment on HCT-116 colon of more than 100 µM.
As to `CO/C(=N\N=C(/C)C(F)(F)F)c1ccncc1`, the TGI in the experiment with NCI/ADR-RES ovarian, with HCT-15 colon, in the experiment with T-47D breast, with OVCAR-8 ovarian, with NCI-H460 lung and in the experiment with SR leukemia was more than 100 µM each time. Moreover, the TGI in the experiment on CAKI-1 renal, in the experiment on NCI-H23 lung, in the experiment with OVCAR-4 ovarian, with U251 CNS, in the experiment on MCF7 breast and with HCT-116 colon was more than 100 µM each time.
